Experimental data taken from patent US11472798B2 (Mission Therapeutics Limited, priority 2014, dated 2022).

Biological target: T1, UCHL1 (Homo sapiens, UniProt P09936)
T1 construct: made in house; host or cells: HEK293T
T1 sequence (P09936 1-223): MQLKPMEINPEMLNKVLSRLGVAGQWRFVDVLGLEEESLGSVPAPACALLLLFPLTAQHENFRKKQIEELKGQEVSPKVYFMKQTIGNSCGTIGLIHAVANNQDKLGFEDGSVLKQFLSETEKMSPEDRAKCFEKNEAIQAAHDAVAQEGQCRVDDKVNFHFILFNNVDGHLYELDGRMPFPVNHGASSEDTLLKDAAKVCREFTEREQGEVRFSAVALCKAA
Assay: UCHL1 biochemical IC50 assay (fluorescence polarisation)
Conditions: 30 min enzyme/compound pre-incubation at room temp, read after 2 hr incubation, read-out: Activity range (UCHL1 biochemical IC50 assay)
How it was run: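 FLAG-UCHL1 purified from transfected HEK293T cells was preincubated 30 min at room temperature with compound (8 points, 100–0.03 μM final) in Tris pH 7.5 buffer with Tween 20, BSA and beta-mercaptoethanol. Reaction started with 50 nM TAMRA-peptide–ubiquitin isopeptide substrate; fluorescence polarisation (ex 540/em 590 nm) read at once and after 2 h.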

IC50	SMILES
1000 to 10000 nM	CC(C)Cn1cnc(NC(=O)[C@H]2CCN(C#N)C2)c1 [Example 148, (S)-1-cyano-N-(1-isobutyl-1H-imidazol-4-yl)pyrrolidine-3-carboxamide]
10000 to 30000 nM	Cc1cccc2sc(NC(=O)[C@H]3CCN(C#N)C3)nc12 [Example 46, (S)-1-cyano-N (4-methylbenzo[d]thiazol-2-yl)pyrrolidine-3-carboxamide]
< 1000 nM	CC[C@@H]1CN(C#N)C[C@H]1C(=O)Nc1ncc(-c2ccccc2)s1 (racemic) [Example 86, (±)-1-cyano-4-ethyl-N-(5-phenylthiazol-2-yl)pyrrolidine-3-carboxamide]
< 1000 nM	N#CN1CC[C@H](C(=O)Nc2cn(C3CCc4ccccc43)cn2)C1 (stereo partly shown) [Example 163]
< 1000 nM	N#Cc1ccc(-n2cnc(NC(=O)[C@H]3CCN(C#N)C3)c2)cc1OCCCN1CCOCC1 [Example 245, (S)-1-cyano-N-(1-(4-cyano-3-(3-morpholinopropoxy)phenyl)-1H-imidazol-4-yl)pyrrolidine-3-carboxamide]
1000 to 10000 nM	N#CN1CC[C@H](C(=O)Nc2nc3c(s2)CN(Cc2ccccc2)CC3)C1 [Example 201, (S)—N-(5-benzyl-4,5,6,7-tetrahydrothiazolo[5,4-c]pyridin-2-yl)-1-cyanopyrrolidine-3-carboxamide]
1000 to 10000 nM	COC[C@H]1CCCN1Cc1cnc(NC(=O)[C@H]2CCN(C#N)[C@H]2C)s1 [Example 145, (2S,3S)-1-cyano-N-(5-(((R)-2-(methoxymethyl)pyrrolidin-1-yl)methyl)thiazol-2-yl)-2-methylpyrrolidine-3-carboxamide]
< 1000 nM	N#CN1CC[C@H](C(=O)Nc2cn(C3CCOCC3)cn2)C1 [Example 161, (S)-1-cyano-N-(1-(tetrahydro-2H-pyran-4-yl)-1H-imidazol-4-yl)pyrrolidine-3-carboxamide]
1000 to 10000 nM	C#Cc1ccc2cnc(NC(=O)[C@H]3CCN(C#N)C3)cc2c1 [Example 263, (S)-1-cyano-N-(6-ethynylisoquinolin-3-yl)pyrrolidine-3-carboxamide]
< 1000 nM	N#CN1CC[C@H](C(=O)Nc2cn(Cc3cccnc3)cn2)C1 [Example 169, (S)-1-cyano-N-(1-(pyridin-3-ylmethyl)-1H-imidazol-4-yl)pyrrolidine-3-carboxamide]
< 1000 nM	COc1cc(-c2cnc(NC(=O)[C@H]3CCN(C#N)C3)s2)ccc1C#N [Example 220, (S)-1-cyano-N-(5-(4-cyano-3-methoxyphenyl)thiazol-2-yl)pyrrolidine-3-carboxamide]
< 1000 nM	N#Cc1cccc(-c2cnc(NC(=O)[C@H]3CCN(C#N)C3)s2)c1 [Example 117, (S)-1-cyano-N-(5-(3-cyanophenyl)thiazol-2-yl)pyrrolidine-3-carboxamide]
10000 to 30000 nM	N#CN1CCC(C(=O)Nc2ccc(-n3ccnc3)cn2)C1 (stereo not shown) [Example 30, N-(5-(1H-imidazol-1-yl)pyridin-2-yl)-1-cyano-pyrrolidine-3-carboxamide]
< 1000 nM	C#Cc1ccc(-c2cnc(NC(=O)[C@H]3CCN(C#N)C3)s2)cc1 [Example 205, (S)-1-cyano-N-(5-(4-ethynylphenyl)thiazol-2-yl)pyrrolidine-3-carboxamide]
1000 to 10000 nM	COCCOC(=O)N1CCc2nc(NC(=O)[C@H]3CCN(C#N)C3)sc2C1 [Example 199, 2-methoxyethyl (S)-2-(1-cyanopyrrolidine-3-carboxamido)-6,7-dihydrothiazolo[5,4-c]pyridine-5(4H)-carboxylate]
1000 to 10000 nM	COC[C@@H]1CCCN1Cc1cnc(NC(=O)[C@H]2CCN(C#N)C2)s1 [Example 144, (S)-1-cyano-N-(5-(((S)-2-(methoxymethyl)pyrrolidin-1-yl)methyl)thiazol-2-yl)pyrrolidine-3-carboxamide]
< 1000 nM	N#CN1CC[C@H](C(=O)Nc2cc(-c3ccnc4ccnn34)ccn2)C1 [Example 251, (S)-1-cyano-N-(4-(pyrazolo[1,5-a]pyrimidin-7-yl)pyridin-2-yl)pyrrolidine-3-carboxamide]
< 1000 nM	N#CN1CC[C@H](C(=O)Nc2cn(-c3ccc4cn[nH]c4c3)cn2)C1 [Example 301, (S)-N-(1-(1H-indazol-6-yl)-1H-imidazol-4-yl)-1-cyanopyrrolidine-3-carboxamide]
< 1000 nM	CN(C)S(=O)(=O)N1CCc2nc(NC(=O)[C@H]3CCN(C#N)C3)sc2C1 [Example 212, (S)-1-cyano-N-(5-(N,N-dimethylsulfamoyl)-4,5,6,7-tetrahydrothiazolo[5,4-c]pyridin-2-yl)pyrrolidine-3-carboxamide]
< 1000 nM	Cc1nc(NC(=O)[C@H]2CCN(C#N)C2)sc1CN1CCOCC1 [Example 65, (S)-1-cyano-N-(4-methyl-5-(morpholinomethyl)thiazol-2-yl)pyrrolidine-3-carboxamide]

IC50	SMILES
< 1000 nM	COc1cc(-c2ccc3nc(NC(=O)[C@H]4CCN(C#N)C4)sc3c2)c(OC)nn1 [Example 132, (S)-1-cyano-N-(6-(3,6-dimethoxypyridazin-4-yl)benzo[d]thiazol-2-yl)pyrrolidine-3-carboxamide]
< 1000 nM	COc1cc(-n2cnc(NC(=O)[C@H]3CCN(C#N)C3)c2)ccc1F [Example 302, (S)-1-cyano-N-(1-(4-fluoro-3-methoxyphenyl)-1H-imidazol-4-yl)pyrrolidine-3-carboxamide]
1000 to 10000 nM	CCc1nnc(NC(=O)C2CCN(C#N)C2)s1 (stereo not shown) [Example 12, 1-cyano-N-(5-ethyl-1,3,4-thiadiazol-2-yl)pyrrolidine-3-carboxamide]
< 1000 nM	N#CN1CC[C@H](C(=O)Nc2ncc(-c3cccc(-n4ccnc4)c3)s2)C1 [Example 216, (S)-N-(5-(3-(1H-imidazol-1-yl)phenyl)thiazol-2-yl)-1-cyanopyrrolidine-3-carboxamide]
10000 to 30000 nM	COc1ccc(NC(=O)C2CCN(C#N)C2)nc1 (stereo not shown) [Example 27, 1-cyano-N-(5-methoxy-pyridin-2-yl)pyrrolidine 3-carboxamide]
< 1000 nM	CN(C)C(=O)c1cccc(-c2cnc(NC(=O)[C@H]3CCN(C#N)C3)s2)c1 [Example 235, (S)-1-cyano-N-(5-(3-(dimethylcarbamoyl)phenyl)thiazol-2-yl)pyrrolidine-3-carboxamide]
1000 to 10000 nM	N#CN1CCC(C(=O)Nc2ccc(-c3ccccc3)nc2)C1 (stereo not shown) [Example 35, 1-cyano-N-(6-phenylpyridin-3-yl)pyrrolidine-3-carboxamide]
1000 to 10000 nM	CN1CCC(n2cnc(NC(=O)[C@H]3CCN(C#N)C3)c2)C1 (stereo partly drawn) [Example 188, (3S)-1-cyano-N-(1-(1-methylpyrrolidin-3-yl)-1H-imidazol-4-yl)pyrrolidine-3-carboxamide]
< 1000 nM	COc1ccc(-n2cnc(NC(=O)[C@H]3CCN(C#N)C3)c2)cc1 [Example 159, (S)-1-cyano-N-(1-(4-methoxyphenyl)-1H-imidazol-4-yl)pyrrolidine-3-carboxamide]
< 1000 nM	N#CN1CC[C@H](C(=O)Nc2ncc(-c3ccc(S(N)(=O)=O)cc3)s2)C1 [Example 221, (S)-1-cyano-N-(5-(4-sulfamoylphenyl)thiazol-2-yl)pyrrolidine-3-carboxamide]
< 1000 nM	N#CN1CC[C@H](C(=O)Nc2cn(-c3cccc4[nH]ncc34)cn2)C1 [Example 303, (S)-N-(1-(1H-indazol-4-yl)-1H-imidazol-4-yl)-1-cyanopyrrolidine-3-carboxamide]
< 1000 nM	Cc1nc(-c2ccc3nc(NC(=O)[C@H]4CCN(C#N)C4)cn3c2)no1 [Example 209, (S)-1-cyano-N-(6-(5-methyl-1,2,4-oxadiazol-3-yl)imidazo[1,2-a]pyridin-2-yl)pyrrolidine-3-carboxamide]
< 1000 nM	CC(=O)Nc1ccc(-c2cnc(NC(=O)C3CCN(C#N)C3)s2)cc1 (stereo not shown) [Example 114, N-(5-(4-acetamidophenyl)thiazol-2-yl)-1-cyanopyrrolidine-3-carboxamide]
1000 to 10000 nM	N#CN1CC[C@H](C(=O)Nc2cc(-c3cn[nH]c3)ccn2)C1 [Example 291, (S)-N-(4-(1H-pyrazol-4-yl)pyridin-2-yl)-1-cyanopyrrolidine-3-carboxamide]
< 1000 nM	COCCOc1ccc(C#N)c(-n2cnc(NC(=O)[C@H]3CCN(C#N)C3)c2)c1 [Example 244, (S)-1-cyano-N-(1-(2-cyano-5-(2-methoxyethoxy)phenyl)-1H-imidazol-4-yl)pyrrolidine-3-carboxamide]
1000 to 10000 nM	N#CN1CCC(C(=O)Nc2nc3ccc(C(F)(F)F)cc3s2)C1 (stereo not shown) [Example 20, 1-cyano-N-(6-(trifluoro-methyl)benzo[d]thiazol-2-yl)pyrrolidine-3-carboxamide]
< 1000 nM	N#CN1CC[C@H](C(=O)Nc2nc3ccc(-n4ccnn4)cc3s2)C1 [Example 62, (S)-N-(6-(1H-1,2,3-triazol-1-yl)benzo[d]thiazol-2-yl)-1-cyano-pyrrolidine-3-carboxamide]
1000 to 10000 nM	C[C@H]1[C@@H](C(=O)Nc2cn([C@@H](C)c3ccccc3)cn2)CCN1C#N [Example 172, (2S,3S)-1-cyano-2-methyl-N-(1-((S)-1-phenylethyl)-1H-imidazol-4-yl)pyrrolidine-3-carboxamide]
< 1000 nM	Cc1cccc(-c2cc(NC(=O)[C@H]3CCN(C#N)C3)nn2C)c1 [Example 271, (S)-1-cyano-N-(1-methyl-5-(m-tolyl)-1H-pyrazol-3-yl)pyrrolidine-3-carboxamide]
1000 to 10000 nM	COc1ccnc(NC(=O)[C@H]2CCN(C#N)C2)c1 [Example 53, (S)-1-cyano-N-(4-methoxypyridin-2-yl)pyrrolidine-3-carboxamide]
